Results as given in US4778803A, “Nitrogen-arylmethoxy-thiophene derivatives and acid addition salts thereof, and pharmaceutical preparations containing these compounds” (Chemie Linz Aktiengesellschaft, priority 1986, dated 1988).

Tested on: leukotriene B4 (LTB4) formation in human granulocytes
Test: inhibitory action on leukotriene B4 (LTB4) formation induced by the calcium ionophor A 23-187 in human granulocytes
Format: cell-based
Conditions: 10 min, 10^7 cells per ml, 10 minutes at 37° C. with compound, then 10 minutes with A 23 187 (final concentration 1 μm), HPLC, 280 nm, 2 experiments per concentration, read-out: concentration which led to a 50% inhibition (IC50) of LTB4 formation
Procedure: To investigate the pharmacological properties of the substances according to the invention, their inhibitory action on leukotriene B4 (LTB4) formation induced by the calcium ionophor A 23-187 was measured. For this, human granulocytes were washed, the cell count was adjusted to 10^7 cells per ml and the cells were incubated for 10 minutes at 37° C. with the compounds according to the invention, such as, for example, 1-(5-(2-quinolinylmethoxy)-2-thienyl)-1-hexanone (compound according to Example 3) or alpha-pentyl-5-(2-quinolinylmethoxy)-2-thiophenemethanol (compound according to Example 5), which had been dissolved to 10^-2 M in dimethylsulfoxide and diluted to the desired concentration with physiological NaCl. The cells were then incubated for a further 10 minutes, after addition of A 23 187 (final concentration 1 μm). The reaction was stopped by addition of glacial acetic acid. The mixture was centrifuged, the supernatant was pipetted off and prostaglandin B2 was added as an internal standard.
The lipid fraction was resolved via HPLC, LTB4 and its 20--OH-- and 20--COOH-metabolites being determined photometrically at 280 nm.
2 experiments were carried out for each concentration value of the substances according to the invention and the concentration which led to a 50% inhibition (IC50) of LTB4 formation was determined for each substance. […]

Structure (SMILES) | IC50
CCCCCC(=O)c1ccc(OCc2ccc3ccccc3n2)s1 [Example 3, 1-[5-(2-Quinolinylmethoxy)-2-thienyl]-1-hexanone] | 0.2 µM
CCCCCC(O)c1ccc(OCc2ccc3ccccc3n2)s1 (stereo not drawn) [Example 5, α-Pentyl-5-(2-quinolinylmethoxy)-2-thiophenemethanol] | 1 µM
